Laboratory results published in article PMC4718634, “Murine GPRC6A Mediates Cellular Responses to L-Amino Acids, but Not Osteocalcin Variants” (PLoS ONE, 2016).
Entries after “also recorded” stand apart in the source; their conditions may differ.

What was measured:
MIN6 cells = test: Insulin release from MIN6 cells; assay type: cell-based, murine
In short: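 After 72 h culture and 2 h glucose-free deprivation, cells exposed to compound for 2 h at 37°C in Krebs buffer pH 7.4 with 2 mM or 16.7 mM glucose. Secreted insulin measured by ELISA, normalised to vehicle at matching glucose; LogEC50 from three- or four-parameter logistic fit.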

mGPRC6A (mouse GPRC6A) = molecular target: T1, mGPRC6A (mouse GPRC6A) (Mus musculus, UniProt Q8K4Z6); test: Cyclic AMP accumulation, FlpIn-TREx-HEK293-mGPRC6A cells; assay type: cell-based
T1 sequence (Q8K4Z6 21-928): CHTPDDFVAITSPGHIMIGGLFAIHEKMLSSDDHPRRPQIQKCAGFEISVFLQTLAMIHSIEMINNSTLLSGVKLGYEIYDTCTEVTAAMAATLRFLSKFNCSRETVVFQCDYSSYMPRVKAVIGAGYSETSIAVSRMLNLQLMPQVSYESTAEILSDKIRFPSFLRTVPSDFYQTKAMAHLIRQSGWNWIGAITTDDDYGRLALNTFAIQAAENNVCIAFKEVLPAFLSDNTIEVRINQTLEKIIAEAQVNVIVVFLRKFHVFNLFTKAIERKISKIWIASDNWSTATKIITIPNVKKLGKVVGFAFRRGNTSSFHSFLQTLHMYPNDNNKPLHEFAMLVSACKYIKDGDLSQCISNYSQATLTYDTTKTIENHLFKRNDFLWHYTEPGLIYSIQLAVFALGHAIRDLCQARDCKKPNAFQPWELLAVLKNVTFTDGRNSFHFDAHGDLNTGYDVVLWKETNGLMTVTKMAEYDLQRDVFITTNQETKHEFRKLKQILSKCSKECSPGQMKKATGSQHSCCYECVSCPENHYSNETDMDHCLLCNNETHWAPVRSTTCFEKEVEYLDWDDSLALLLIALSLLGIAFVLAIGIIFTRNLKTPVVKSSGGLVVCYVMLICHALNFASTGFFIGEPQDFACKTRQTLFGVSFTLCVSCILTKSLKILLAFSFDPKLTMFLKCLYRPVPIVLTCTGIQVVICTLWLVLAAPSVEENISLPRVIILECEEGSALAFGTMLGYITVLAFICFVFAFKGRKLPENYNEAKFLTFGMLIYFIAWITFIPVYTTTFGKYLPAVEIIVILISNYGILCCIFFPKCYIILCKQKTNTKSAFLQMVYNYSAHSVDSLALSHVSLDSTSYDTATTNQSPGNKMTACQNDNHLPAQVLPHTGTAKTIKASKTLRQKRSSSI
Description: pcDNA 5/FRT/TO constructs were isogenically integrated into a FlpIn-TREx-HEK293 cell line (Life Technologies). FlpIn-TREx-HEK293-mGPRC6A and FlpIn-TREx-HEK293-hGPRC6A cells were then selected using 600 μg/ml hygromycin and 5 μg/ml blasticidin and grown in culture medium consisting of Dulbecco’s Modified Eagle Medium (DMEM), supplemented with 10% (v/v) foetal bovine serum (FBS) at 37°C in 5% CO2 and were sub-cultured in a 1:3 ratio every 3–4 days. Cells were cultured overnight in the presence of 1 μg/ml tetracycline to induce GPRC6A expression. […] 48 h after transfection, cells were selected using 3 μg/ml puromycin and grown as above.
HEK293-mGPRC6A cells were seeded at a density of 10^5 cells per well into PDL-coated 96-well plates and incubated overnight in DMEM, supplemented with 10% FBS (v/v) at 37°C in 5% CO2. Cells were then incubated in 90 μl of stimulation buffer (HBSS containing 5 mM HEPES, 0.1% BSA (w/v), 0.5 mM IBMX; pH 7.4) for 30 min at 37°C. Test compounds (10 μl at 10 x final) were added and cells were incubated for an additional 30 min at 37°C. The medium was removed and cells were incubated in 50 μl of ice-cold 100% ethanol. Once evaporated, 100 μl of lysis buffer (5 mM HEPES, 0.1% BSA (w/v), 0.3% Tween-20; pH 7.4) was added to the cells and samples were stored at -20°C until further analysis. Samples were analysed using the Alphascreen® cAMP assay kit (Perkin Elmer) following manufacturer instructions. Briefly, 10 μl of lysates were added to a 384-well Optiplate. After addition of 5 μl of acceptor bead mix, plate was incubated at RT for 30 min followed by addition of 15 μl of donor bead mix. After overnight (16 h) incubation at RT, plates were read using the Envision plate reader.

Row | Molecule | glucose-sensitive insulin secretion (MIN6 cells; L-ornithine 20 mM, 16.7 mM glucose, P < 0.01 vs Vehicle, 2 h, ELISA, Fig 6B) | stimulation of cAMP accumulation (mGPRC6A (mouse GPRC6A); 30 min, 0.5 mM IBMX, Alphascreen, Fig 3A) | inhibition of forskolin-stimulated cAMP (mGPRC6A (mouse GPRC6A); forskolin 3 μM, Fig 3A) | insulin secretion, OCN (MIN6 cells; mouse OCN 0.03–30 ng/mL, 0.03–100 ng/mL (Fig 6B legend), low and high glucose) | cAMP response (summary) (mGPRC6A (mouse GPRC6A); S1 Table)
1 | NCCC[C@H](N)C(=O)O [L-ornithine] | significantly increased glucose-sensitive insulin secretion; also recorded: could be increased by L-ornithine | no detectable modulation of cAMP accumulation | neither L-ornithine nor OCN variants inhibited cAMP levels stimulated by forskolin; also recorded: Neither L-ornithine nor OCN variants inhibit | – | –
2 | OCN: osteoblast-derived peptide, osteocalcin; variant not specified at the place (YLYQWLGAPVPYPDPLEPRREVCELNPDCDELADHIGFQEAYRRFYGPV; UniProt P02818 52-100, looked up) | – | – | – | failed to induce GSIS | no response
